{
  "source": "patent US11318148B2",
  "about": "“Preservative-free treprostinil devices” (SteadyMed, Ltd., priority 2014, dated 2022)",
  "origin": "cited, not measured here",
  "key": {"[1]": {"details": "in vivo"}, "[2]": {"details": "has to be kept on ice during administration"}},
  "data": [
    {"smiles": "CCCCC[C@H](O)/C=C/[C@@H]1[C@H]2C/C(=C/CCCC(=O)O)O[C@H]2C[C@H]1O", "note": "[Flolan]", "values": [
      {"measurement": "half-life", "setting": "[1]", "value": "3 to 5", "unit": "min"},
      {"measurement": "stability at room temperature", "setting": "[2]", "value": "unstable at room temperature"}
    ]}
  ]
}
